Source: patent US20240043404A1 (AbbVie Inc., priority 2009, published 2024)
pEC50: −log10 of the molar value.

Tested on: RS4;11 cells
Assay: RS4;11 cell viability assay (CellTiter Glo);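 note: acute lymphoblastic leukemia line RS4,11, EC50 derived from percentage of viable cells after treatment relative to untreated controls, cell killing taken as a measure of Bcl-2 inhibition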
Type: cell-based, human
Conditions: Homo sapiens, RS4-11, 48 h, 50,000 cells per well, 10% human serum, 48 hours; read-out: RS4; 11 EC50 Values
Protocol: The acute lymphoblastic leukemia (ALL) cell line RS4;11 was used as the primary human cell line to assess the cellular activity of Bcl-2 selective agents in vitro and their efficacy in vivo.
Cell cytotoxicity EC50 values were assessed using CellTiter Glo (Promega) according to the manufacturer's recommendations. The EC50 values were determined as a percentage of viable cells following treatment compared to the untreated control cells.

Structure (SMILES)	pEC50
COC(=O)N1CCOC(CNc2ccc(S(=O)(=O)NC(=O)c3ccc(N4CCN(CC5=C(c6ccc(Cl)cc6)CC(C)(C)CC5)CC4)cc3Oc3cnc4[nH]ccc4c3)cc2[N+](=O)[O-])C1 (stereo not shown) [Example 317, methyl 2-{[(4-{[4-(4-{[2-(4-chlorophenyl)-4,4-dimethylcyclohex-1-en-1-yl]methyl}piperazin-1-yl)-2-(1H-pyrrolo[2,3-b]pyridin-5-yloxy)benzoyl]sulfamoyl}-2-nitrophenyl)amino]methyl}morpholine-4-carboxylate]	7.88
CCN(C)C(=O)N1CCOC(CNc2ccc(S(=O)(=O)NC(=O)c3ccc(N4CCN(CC5=C(c6ccc(Cl)cc6)CC(C)(C)CC5)CC4)cc3Oc3cnc4[nH]ccc4c3)cc2[N+](=O)[O-])C1 (stereo not shown) [Example 318, 2-{[(4-{[4-(4-{[2-(4-chlorophenyl)-4,4-dimethylcyclohex-1-en-1-yl]methyl}piperazin-1-yl)-2-(1H-pyrrolo[2,3-b]pyridin-5-yloxy)benzoyl]sulfamoyl}-2-nitrophenyl)amino]methyl}-N-ethyl-N-methylmorpholine-4-carboxamide]	7.94
O=C(NS(=O)(=O)c1ccc(NCC2CCOCC2)c([N+](=O)[O-])c1)c1ccc(N2CCN(CC3=C(c4ccc(Cl)cc4)CCC(F)(F)C3)CC2)cc1Oc1cnc2[nH]ccc2c1 [Example 321, 4-(4-{[2-(4-chlorophenyl)-5,5-difluorocyclohex-1-en-1-yl]methyl}piperazin-1-yl)-N-({3-nitro-4-[(tetrahydro-2H-pyran-4-ylmethyl)amino]phenyl}sulfonyl)-2-(1H-pyrrolo[2,3-b]pyridin-5-yloxy)benzamide]	7.73
O=C(NS(=O)(=O)c1ccc(NC[C@H]2CC[C@H](O)CC2)c([N+](=O)[O-])c1)c1ccc(N2CCN(CC3=C(c4ccc(Cl)cc4)CCC(F)(F)C3)CC2)cc1Oc1cnc2[nH]ccc2c1 [Example 324, 4-(4-{[2-(4-chlorophenyl)-5,5-difluorocyclohex-1-en-1-yl]methyl}piperazin-1-yl)-N-[(4-{[(trans-4-hydroxycyclohexyl)methyl]amino}-3-nitrophenyl)sulfonyl]-2-(1H-pyrrolo[2,3-b]pyridin-5-yloxy)benzamide]	8.34
CC1(C)CCC(CN2CCN(c3ccc(C(=O)NS(=O)(=O)c4ccc(NC[C@H]5CN(C6CC6)CCO5)c([N+](=O)[O-])c4)c(Oc4cnc5[nH]ccc5c4)c3)CC2)=C(c2ccc(Cl)cc2)C1 [Example 327, 4-(4-{[2-(4-chlorophenyl)-4,4-dimethylcyclohex-1-en-1-yl]methyl}piperazin-1-yl)-N-{[4-({[(2S)-4-cyclopropylmorpholin-2-yl]methyl}amino)-3-nitrophenyl]sulfonyl}-2-(1H-pyrrolo[2,3-b]pyridin-5-yloxy)benzamide]	8.57
O=C(NS(=O)(=O)c1ccc(NCC2CCOCC2)c([N+](=O)[O-])c1)c1ccc(N2CCN(CC3=C(c4ccc(Cl)cc4)CC4(CC3)CC4)CC2)cc1Oc1cnc2[nH]ccc2c1 [Example 328, 4-(4-{[5-(4-chlorophenyl)spiro[2.5]oct-5-en-6-yl]methyl}piperazin-1-yl)-N-({3-nitro-4-[(tetrahydro-2H-pyran-4-ylmethyl)amino]phenyl}sulfonyl)-2-(1H-pyrrolo[2,3-b]pyridin-5-yloxy)benzamide]	8.01
CC1(C)CCC(CN2CCN(c3ccc(C(=O)NS(=O)(=O)c4cnc(OCC5CCC(N(C6CC6)C6COC6)CC5)c(Cl)c4)c(Oc4cnc5[nH]ccc5c4)c3)CC2)=C(c2ccc(Cl)cc2)C1 (stereo not shown) [Example 329, N-{[5-chloro-6-({4-[cyclopropyl(oxetan-3-yl)amino]cyclohexyl}methoxy)pyridin-3-yl]sulfonyl}-4-(4-{[2-(4-chlorophenyl)-4,4-dimethylcyclohex-1-en-1-yl]methyl}piperazin-1-yl)-2-(1H-pyrrolo[2,3-b]pyridin-5-yloxy)benzamide]	6.37
O=C(NS(=O)(=O)c1ccc(NCC2CN(C3CC3)CCO2)c([N+](=O)[O-])c1)c1ccc(N2CCN(CC3=C(c4ccc(Cl)cc4)CC4(CC3)CC4)CC2)cc1Oc1cnc2[nH]ccc2c1 (stereo not shown) [Example 330, 4-(4-{[5-(4-chlorophenyl)spiro[2.5]oct-5-en-6-yl]methyl}piperazin-1-yl)-N-[(4-{[(4-cyclopropylmorpholin-2-yl)methyl]amino}-3-nitrophenyl)sulfonyl]-2-(1H-pyrrolo[2,3-b]pyridin-5-yloxy)benzamide]	8.01
CC1(C)CCC(CN2CCN(c3ccc(C(=O)NS(=O)(=O)c4ccc(OCC5CN(C6CC6)CCO5)c(Cl)c4)c(Oc4cnc5[nH]ccc5c4)c3)CC2)=C(c2ccc(Cl)cc2)C1 (stereo not shown) [Example 331, N-({3-chloro-4-[(4-cyclopropylmorpholin-2-yl)methoxy]phenyl}sulfonyl)-4-(4-{[2-(4-chlorophenyl)-4,4-dimethylcyclohex-1-en-1-yl]methyl}piperazin-1-yl)-2-(1H-pyrrolo[2,3-b]pyridin-5-yloxy)benzamide]	6.03
CCN(C)C(=O)N1CCOC(CNc2ccc(S(=O)(=O)NC(=O)c3ccc(N4CCN(CC5=C(c6ccc(Cl)cc6)CC(C)(C)CC5)CC4)cc3Oc3cnc4[nH]ccc4c3)cc2Cl)C1 (stereo not shown) [Example 333, 2-{[(2-chloro-4-{[4-(4-{[2-(4-chlorophenyl)-4,4-dimethylcyclohex-1-en-1-yl]methyl}piperazin-1-yl)-2-(1H-pyrrolo[2,3-b]pyridin-5-yloxy)benzoyl]sulfamoyl}phenyl)amino]methyl}-N-ethyl-N-methylmorpholine-4-carboxamide]	6.33

Other lines, results leading:

pEC50	Structure (SMILES)
6.68	CC1(C)CCC(CC2CCN(c3ccc(C(=O)NS(=O)(=O)c4ccc(NCC5CCOCC5)c([N+](=O)[O-])c4)c(Oc4cnc5[nH]ccc5c4)c3)CC2)=C(c2ccc(Cl)cc2)C1 [Example 315, 4-(4-{[2-(4-chlorophenyl)-4,4-dimethylcyclohex-1-en-1-yl]methyl}piperidin-1-yl)-N-({3-nitro-4-[(tetrahydro-2H-pyran-4-ylmethyl)amino]phenyl}sulfonyl)-2-(1H-pyrrolo[2,3-b]pyridin-5-yloxy)benzamide]
< 6.00	CC1(C)CCC(CC2CCN(c3ccc(C(=O)NS(=O)(=O)c4ccc(OCC5CCOCC5)c(Cl)c4)c(Oc4cnc5[nH]ccc5c4)c3)CC2)=C(c2ccc(Cl)cc2)C1 [Example 316, 4-(4-{[2-(4-chlorophenyl)-4,4-dimethylcyclohex-1-en-1-yl]methyl}piperidin-1-yl)-N-{[3-chloro-4-(tetrahydro-2H-pyran-4-ylmethoxy)phenyl]sulfonyl}-2-(1H-pyrrolo[2,3-b]pyridin-5-yloxy)benzamide]
8.35	CC1(C)CCC(CN2CCN(c3ccc(C(=O)NS(=O)(=O)c4ccc(NCC5CN(S(C)(=O)=O)CCO5)c([N+](=O)[O-])c4)c(Oc4cnc5[nH]ccc5c4)c3)CC2)=C(c2ccc(Cl)cc2)C1 (stereo not shown) [Example 319, 4-(4-{[2-(4-chlorophenyl)-4,4-dimethylcyclohex-1-en-1-yl]methyl}piperazin-1-yl)-N-{[4-({[4-(methylsulfonyl)morpholin-2-yl]methyl}amino)-3-nitrophenyl]sulfonyl}-2-(1H-pyrrolo[2,3-b]pyridin-5-yloxy)benzamide]
7.29	CC1(C)CCC(CN2CCN(c3ccc(C(=O)NS(=O)(=O)c4ccc(NCCCN(C5CCC5)C5CC5)c([N+](=O)[O-])c4)c(Oc4cnc5[nH]ccc5c4)c3)CC2)=C(c2ccc(Cl)cc2)C1 [Example 320, 4-(4-{[2-(4-chlorophenyl)-4,4-dimethylcyclohex-1-en-1-yl]methyl}piperazin-1-yl)-N-{[4-({3-[cyclobutyl(cyclopropyl)amino]propyl}amino)-3-nitrophenyl]sulfonyl}-2-(1H-pyrrolo[2,3-b]pyridin-5-yloxy)benzamide]
7.91	CC1(C)CCC(CN2CCN(c3ccc(C(=O)NS(=O)(=O)c4ccc(OCC5(F)CCN(C6COC6)CC5)c(Cl)c4)c(Oc4cnc5[nH]ccc5c4)c3)CC2)=C(c2ccc(Cl)cc2)C1 [Example 322, N-[(3-chloro-4-{[4-fluoro-1-(oxetan-3-yl)piperidin-4-yl]methoxy}phenyl)sulfonyl]-4-(4-{[2-(4-chlorophenyl)-4,4-dimethylcyclohex-1-en-1-yl]methyl}piperazin-1-yl)-2-(1H-pyrrolo[2,3-b]pyridin-5-yloxy)benzamide]
6.14	CC1(C)CCC(CN2CCN(c3ccc(C(=O)NS(=O)(=O)c4ccc(OCC5CCOC5)c(Cl)c4)c(Oc4cnc5[nH]ccc5c4)c3)CC2)=C(c2ccc(Cl)cc2)C1 (stereo not shown) [Example 323, 4-(4-{[2-(4-chlorophenyl)-4,4-dimethylcyclohex-1-en-1-yl]methyl}piperazin-1-yl)-N-{[3-chloro-4-(tetrahydrofuran-3-ylmethoxy)phenyl]sulfonyl}-2-(1H-pyrrolo[2,3-b]pyridin-5-yloxy)benzamide]
7.91	O=C(NS(=O)(=O)c1ccc(OCC2(F)CCOCC2)c(Cl)c1)c1ccc(N2CCN(CC3=C(c4ccc(Cl)cc4)CCC4(CCN(C5COC5)CC4)C3)CC2)cc1Oc1cnc2[nH]ccc2c1 [Example 325, N-({3-chloro-4-[(4-fluorotetrahydro-2H-pyran-4-yl)methoxy]phenyl}sulfonyl)-4-(4-{[9-(4-chlorophenyl)-3-(oxetan-3-yl)-3-azaspiro[5.5]undec-8-en-8-yl]methyl}piperazin-1-yl)-2-(1H-pyrrolo[2,3-b]pyridin-5-yloxy)benzamide]
7.64	CC1(C)CCC(CN2CCN(c3ccc(C(=O)NS(=O)(=O)c4ccc(NC[C@@H]5CN(C6CC6)CCO5)c([N+](=O)[O-])c4)c(Oc4cnc5[nH]ccc5c4)c3)CC2)=C(c2ccc(Cl)cc2)C1 [Example 326, 4-(4-{[2-(4-chlorophenyl)-4,4-dimethylcyclohex-1-en-1-yl]methyl}piperazin-1-yl)-N-{[4-({[(2R)-4-cyclopropylmorpholin-2-yl]methyl}amino)-3-nitrophenyl]sulfonyl}-2-(1H-pyrrolo[2,3-b]pyridin-5-yloxy)benzamide]
6.34	CC1(C)CCC(CN2CCN(c3ccc(C(=O)NS(=O)(=O)c4ccc(NCC5CN(C6CC6)CCO5)c(Cl)c4)c(Oc4cnc5[nH]ccc5c4)c3)CC2)=C(c2ccc(Cl)cc2)C1 (stereo not shown) [Example 332, N-[(3-chloro-4-{[(4-cyclopropylmorpholin-2-yl)methyl]amino}phenyl)sulfonyl]-4-(4-{[2-(4-chlorophenyl)-4,4-dimethylcyclohex-1-en-1-yl]methyl}piperazin-1-yl)-2-(1H-pyrrolo[2,3-b]pyridin-5-yloxy)benzamide]
